We go through 1 compound from the NIST ThermoML archive (doi:10.1021/je900614f).

For the data set the following is noted: Crystal; visual observation.

± gives the expanded uncertainty stated by the source.

Consider `CCOc1ccc(NC(C)=O)cc1` [N-(4-ethoxyphenyl)ethanamide], for which the Triple point temperature is 407 ± 1 K.
